Consider 4 compounds from patent EP4702986A1, “POLYPEPTIDE AND USE THEREOF” (Biocells (Beijing) Biotech Co., Ltd., priority 2023, dated 2024).

The test system of one data set is VEGF-A. Kind of data set: VEGF-A protein expression in infarcted brain tissue of tMCAO mice (ELISA). The data set is classed as in vivo, C57/6J mice. The note with it: for VEGF-A: 3 times s.c. (D1, D3, D6), brain tissue after D14. The procedure:
Fifty-one male C57/6J mice, aged 10-12 weeks, weighing 25-30g, were housed for at least 2 days prior to the experiment to adapt to the environment (SPF Biotech). A mouse model of tMCAO was established. The mice were anesthetized with isoflurane. Their body temperature was controlled by a thermostatic blanket and monitored and maintained at 37±0.5°C. A middle incision was made in the skin on the mouse skull, the skin was pulled outward, and a bendable microneedle tip was fixed to the surface of the left parietal bone of the mouse skull. A middle incision on the neck was made to separate the right common carotid artery (CCA), external carotid artery (ECA) and internal carotid artery (ICA). According to the method of Longa (Longa et al., 1989), a silicone rubber-coated suture (RWD Life Science, suture end diameter: 0.22 mm-0.23 mm, MSMC23B120PK50) was introduced through an external carotid artery incision surgery and was slowly advanced through the internal carotid artery towards the origin of the middle cerebral artery. To ensure a sustained and successful occlusion of the middle cerebral artery, we monitored local cerebral blood flow of all stroke animals with a laser speckle flowmeter (generally, the blood flow can be reduced by 40-60% after stabilized). The suture was removed 45 min after the insertion for modeling, and the incision was sutured. Afterward, 1 mL of 37°C warm saline was injected subcutaneously, and the mice were placed on a heating pad until recovery. To alleviate pain, the mice were injected subcutaneously with Tilidine after awakening from anesthesia.
Successfully modeled C57 tMCAO mice were randomly assigned into three groups: a normal saline group, a 30µg/Kg BX229-Na administration group, and a 100µg/Kg BX229-Na administration group. Each group was administered once subcutaneously in the neck 4.5 hours after occlusion (D1), and was administered once more at the same sites and at the same time points on D3 and D6. A sham group included 6 animals. 2 mL/kg was administrated subcutaneously in the neck. Garcia JH scoring was made on D7 and D14 after administration. After the completion of the scoring on D14, the mice were euthanized and harvested for infarcted brain tissues, to extract total proteins. Changes in protein markers VEGF-A and BDNF in each experimental group were detected by ELISA. Table 19: Experimental Grouping and Dosing Regimen

The next data set has as its system BDNF. Description: BDNF protein expression in infarcted brain tissue, mouse model of tMCAO (ELISA). The data set is classed as in vivo, C57/6J mice. Here is the method: Fifty-one male C57/6J mice, aged 10-12 weeks, weighing 25-30g, were housed for at least 2 days prior to the experiment to adapt to the environment (SPF Biotech). A mouse model of tMCAO was established. The mice were anesthetized with isoflurane. Their body temperature was controlled by a thermostatic blanket and monitored and maintained at 37±0.5°C. A middle incision was made in the skin on the mouse skull, the skin was pulled outward, and a bendable microneedle tip was fixed to the surface of the left parietal bone of the mouse skull. A middle incision on the neck was made to separate the right common carotid artery (CCA), external carotid artery (ECA) and internal carotid artery (ICA). […] To ensure a sustained and successful occlusion of the middle cerebral artery, we monitored local cerebral blood flow of all stroke animals with a laser speckle flowmeter (generally, the blood flow can be reduced by 40-60% after stabilized). […]
Successfully modeled C57 tMCAO mice were randomly assigned into three groups: a normal saline group, a 30µg/Kg BX229-Na administration group, and a 100µg/Kg BX229-Na administration group. […] Changes in protein markers VEGF-A and BDNF in each experimental group were detected by ELISA. […]
For orientation: In an ELISA, binding on a coated surface is turned into a signal by an enzyme label.

The subject of data set [1] is rat model of pMACO. Kind of data set: mRS-6 scoring in rat model of pMACO. The data set is classed as in vivo, SD rats. Set-up: mRS-7D / mRS-14D / mRS-21D / mRS-30D: scale not given here. The note with it: for mRS-7D: day 7; for mRS-14D: day 14; for mRS-21D: day 21; for mRS-30D: day 30. The source says:
Male SD rats, weighing 280-300 g, were used and acclimatized for at least 3 days. Focal cerebral ischemia was induced by middle cerebral artery occlusion with a suture method under isoflurane anesthesia. The animals were placed in a supine position, a midline incision was made, and the right common carotid artery, external carotid artery, and internal carotid artery were exposed. A 4.0 monofilament nylon suture was advanced from the external carotid artery toward the internal carotid artery lumen until resistance was felt (~20 mm), indicating middle cerebral artery occlusion. The nylon filament was allowed to stay in place to create a permanent model of focal cerebral ischemia. The day of modeling was defined as D1, the next day as D2, and so on. Since the experiment was not be completed in a single batch, and in order to prevent accidental errors, all operations in this experiment had to follow the principle of parallel operation, i.e., the experiment on each day needed to include animals from each group. Sequential numbering for surgical modeling was obtained by sorting the animals according to their body weight before the experiment. After the surgery, successfully modeled pMCAO rats were randomly assigned into a model group and various treatment groups. The detailed grouping of the experiment was as follows: (1) 15 rats in the 5 µg/Kg IRL1620 group with 9 administrations over 3 days; (2) 15 rats in the 6.6 µg/Kg BX225 group with 9 administrations over 3 days; (3) 15 rats in the 19.8 µg/Kg BX225 group with 3 administrations over 3 days; (4) 15 rats in the model (normal saline) group; and (5) 6 rats in the sham group (the sham group underwent the same procedure without vascular ligation and suture insertion). The administration was performed via tail vein injection (iv) with an administration volume of 2 mL/kg. The first administration was 2 hours after the surgery. Administration frequencies were single and multiple administrations per day according to the experimental design. Administrations were performed on D1, D3, and D6, respectively, as detailed in Table 22. The model group and the sham group were given the same volume of vehicle normal saline.

The conditions of data set [2]: background statement; cited from earlier work.
The subject of another data set is mouse model of dMACO. Kind of data set: Cerebral blood flow perfusion in mouse model of dMACO (laser speckle flowmeter). The data set is classed as in vivo, C57 BL/6 mice. The source says:
Eight-week-old male C57 BL/6 mice were used and acclimated for at least 3 days. On the day of experiment, the mice were anesthetized with isoflurane, and an incision of approximately 2 cm in length was made in the middle of the […]. The mice were placed under a laser speckle flowmeter to capture a video of blood flow on both sides of the brain as images of pre-ischemic blood flow perfusion. Subsequently, a skull incision (3 mm×1.5 mm) was made at the right rear of the intersection of the sagittal suture and the coronal suture with a skull drill. The distal end of the right middle cerebral artery was located under a microscope, and a No.11 suture was used to ligate the middle artery. Meanwhile, the right common carotid artery was separated and ligated. A video of blood flow on both sides of the brain was captured again as images of post-ischemic blood flow perfusion. The scalp was sutured, and the animals were rewarmed in a rewarming box. Successfully modeled dMACO mice were randomly assigned to single-dose BX-34 groups of 7, 14, and 42 µg/Kg, single-dose IRL1620 groups of 5 and 10 µg/Kg, a three-dose IRL1620 group of 10 µg/Kg, and a normal saline control group. The single-dose groups were administered via tail vein 1 h after modeling, while the three-dose group was administered via tail vein at 1 hour, 3 hours, and 5 hours after modeling. A video of blood flow on both sides of the brain of each animal was captured again at 24 hours, 48 hours, and D7 after administration. During data analysis, the ROI was introduced or the area requiring blood flow calculation was selected. The average blood flow of the selected area was calculated by double-clicking on the blood flow image. Ratios of the average blood flow perfusions on right brain after modeling, and 24 hours, 48 hours and D7 after administration, to the average blood flow on right brain before modeling were used for statistical analysis of each group.

Data set [3] deals with rat model of pMACO. Description: Foot fault test in rat model of pMACO. The note with it: rat pMCAO; D7 after administration; comparison in words. The data set is classed as in vivo, SD rats.
The mark [4] stands for this setting: 3Time regimen: IRL1620 5 µg/Kg, BX225 6.6 µg/Kg.
Setting [5] is: pMCAO rats, 6.6 µg/Kg three-dose group, iv.

Each structure is given as a SMILES string. Numbered stars: 1 amine (or outer) side, 2 acyl side, 3 side chain; on linkers, the order of the positions; unused ones are H or OH. Side chains are listed from the residue outwards. Peptide text beside a SMILES is read from it. * marks the point of attachment. C18 diacid = O=C(O)CCCCCCCCCCCCCCCCC(=O)*; γGlu = O=C(O)[C@H](CCC(=O)[*:2])N[*:1]; Fumaroyl = O=C(O)/C=C/C(=O)*; Suc = O=C(CCC(=O)[*:2])[*:1]; Lauroyl = CCCCCCCCCCCC(=O)*; AEEA = NCCOCCOCC(=O)O

With `CCCCCCCCCCCC(=O)N[C@@H](CCC(=O)NCCOCCOCC(=O)NCCCC[C@H](NC(=O)[C@H](Cc1c[nH]cn1)NC(=O)[C@H](C)NC(=O)[C@H](Cc1ccccc1)NC(=O)[C@H](Cc1ccc(O)cc1)NC(=O)[C@@H](NC(=O)[C@H](C)NC(=O)[C@H](CCC(=O)O)NC(=O)[C@H](CCC(=O)O)NC(=O)[C@H](CC(=O)O)NC(=O)/C=C/C(=O)O)C(C)C)C(=O)N[C@@H](CC(=O)O)C(=O)N[C@H](C(=O)N[C@H](C(=O)N[C@@H](Cc1c[nH]c2ccccc12)C(=O)O)[C@@H](C)CC)C(C)C)C(=O)O` [BX229-Na] (Fumaroyl-DEEAVYFAHK([AEEA-γGlu-Lauroyl])DVIW-OH), the figures for the “expression level of VEGF-A protein compared with the normal saline group” value in the data set with VEGF-A (30µg/Kg three-dose group) and in the data set on VEGF-A (100µg/Kg three-dose group) were “higher” and “significantly different”, respectively. In addition, the VEGF-A with VEGF-A (30 µg/Kg) worked out at 441 ± 102 pg/mL; in the data set with VEGF-A (100 µg/Kg) it was 562 ± 56 pg/mL. For the same compound, the “expression level of BDNF protein compared with the normal saline group” value in the data set with BDNF (30µg/Kg three-dose group) and in the data set with BDNF (100µg/Kg three-dose group) was “higher than that in the normal saline group” each time.

On to `CCCCCCCCCCCC(=O)N[C@@H](CCC(=O)NCCOCCOCC(=O)NCCCC[C@H](NC(=O)[C@H](Cc1c[nH]cn1)NC(=O)[C@H](C)NC(=O)[C@H](Cc1ccccc1)NC(=O)[C@H](Cc1ccc(O)cc1)NC(=O)[C@@H](NC(=O)[C@H](C)NC(=O)[C@H](CCC(=O)O)NC(=O)[C@H](CCC(=O)O)NC(=O)[C@H](CC(=O)O)NC(=O)/C=C/C(=O)O)C(C)C)C(=O)N[C@@H](CC(=O)O)C(=O)N[C@H](C(=O)N[C@H](C(=O)N[C@@H](Cc1c[nH]c2ccccc12)C(=O)O)[C@@H](C)CC)[C@@H](C)CC)C(=O)O` [BX-225] (Fumaroyl-DEEAVYFAHK([AEEA-γGlu-Lauroyl])DIIW-OH), for which, in the data set with rat model of pMACO [1] (19.8 µg/Kg, 1Time regimen), the mRS-7D stood at 3.14±2.14, the mRS-14D was 3.90±2.61, the mRS-21D is 3.73±2.81 and the mRS-30D is 3.65±2.91. Further, in the data set on rat model of pMACO [1] (setting [4]), the mRS-7D amounted to 1.67±0.50, the mRS-14D was 1.17±0.50, the mRS-21D is 0.75±0.41 and the mRS-30D was 0.50±0.31. Besides, in the data set on rat model of pMACO [1] (setting [5]), the “mRS-6 score on day 14 compared with the normal saline group and the IRL1620 three-dose group” value is listed as “close to a significant difference”; the “mRS-6 scores, course from day 7, day 14, day 21, to day 30” value was “continuous improvement”. Besides, the “mRS-6 scores on days 7, 21, and 30 compared with the normal saline group and the IRL1620 three-dose group” value in the data set on rat model of pMACO [1] (pMCAO rats, 6.6 µg/Kg three-dose group, iv, P<0.05) is “significant differences”.

As to `CC[C@H](C)[C@H](NC(=O)[C@H](CC(=O)O)NC(=O)[C@H](CC(C)C)NC(=O)[C@H](Cc1c[nH]cn1)NC(=O)[C@H](C)NC(=O)[C@H](Cc1ccccc1)NC(=O)[C@H](Cc1ccc(O)cc1)NC(=O)[C@@H](NC(=O)[C@H](C)NC(=O)[C@H](CCC(=O)O)NC(=O)[C@H](CCC(=O)O)NC(=O)[C@H](CC(=O)O)NC(=O)CCC(=O)O)C(C)C)C(=O)N[C@H](C(=O)N[C@@H](Cc1c[nH]c2ccccc12)C(=O)O)[C@@H](C)CC` [IRL1620, reference compound] (Suc-DEEAVYFAHLDIIW-OH), in the data set with rat model of pMACO [1] (setting [4]), the mRS-7D was found to be 2.54±2.03, the mRS-14D was 2.77±2.66, the mRS-21D was found to be 2.72±2.71 and the mRS-30D was found to be 2.52±2.87. The half-life result in data set [2] is recorded as “less than 2 minutes”. Moreover, the “cerebral blood flow perfusion amount compared to the normal saline group” value in the data set on mouse model of dMACO (dMCAO mice, single dose of 5 µg/kg via tail vein) is on record as “no significant differences”. Moreover, the “cerebral blood flow perfusion amount compared to the normal saline group” value in the data set with mouse model of dMACO (mouse, in vivo) was “no significant differences”.

As for `CC[C@H](C)[C@H](NC(=O)[C@H](CC(=O)O)NC(=O)[C@H](CCCCNC(=O)COCCOCCNC(=O)COCCOCCNC(=O)CC[C@H](NC(=O)CCCCCCCCCCCCCCCCC(=O)O)C(=O)O)NC(=O)[C@H](Cc1c[nH]cn1)NC(=O)[C@H](C)NC(=O)[C@H](Cc1ccccc1)NC(=O)[C@H](Cc1ccc(O)cc1)NC(=O)[C@@H](NC(=O)[C@H](C)NC(=O)[C@H](CCC(=O)O)NC(=O)[C@H](CCC(=O)O)NC(=O)[C@H](CC(=O)O)NC(=O)/C=C/C(=O)O)C(C)C)C(=O)N[C@H](C(=O)N[C@@H](Cc1c[nH]c2ccccc12)C(=O)O)[C@@H](C)CC` [BX-34] (Fumaroyl-DEEAVYFAHK([AEEA-AEEA-γGlu-C18 diacid])DIIW-OH), the “percentages of foot faults” value in the data set on rat model of pMACO [3] is “lower than that of the saline group and the IRL1620 group”. Moreover, the “cerebral blood flow perfusion amount compared to the normal saline group” value with mouse model of dMACO (dMCAO mice, single dose of 42 µg/kg via tail vein, 24 hours, 48 hours and D7 after administration) is listed as “significantly increased”.
